target: MAPK14 (human) (UniProt Q16539); assay: In vitro Inhibition of TNF-alpha Production in PBMC Cells; conditions: not given
Sequence (Q16539 whole entry, looked up): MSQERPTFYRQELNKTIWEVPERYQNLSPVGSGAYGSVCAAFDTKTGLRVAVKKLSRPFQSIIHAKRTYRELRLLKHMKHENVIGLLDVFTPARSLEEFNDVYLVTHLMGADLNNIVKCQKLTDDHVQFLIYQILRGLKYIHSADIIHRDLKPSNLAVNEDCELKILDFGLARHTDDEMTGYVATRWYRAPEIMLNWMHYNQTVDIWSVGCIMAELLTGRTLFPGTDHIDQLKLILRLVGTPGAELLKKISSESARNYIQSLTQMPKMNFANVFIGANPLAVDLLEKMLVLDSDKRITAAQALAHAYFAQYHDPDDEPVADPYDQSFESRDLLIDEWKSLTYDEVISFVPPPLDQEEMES

| IC50 | SMILES |
| --- | --- |
| 4 nM | C[C@H](Nc1nccc(-c2cn(CCN3CCOCC3)cc2-c2ccc(F)cc2)n1)c1ccccc1 |
| 1890 nM | Cn1c(Br)c(-c2ccncc2)c(-c2ccc(F)cc2)c1C(=O)OC(C)(C)C |
| 237 nM | COC(=O)c1c(-c2ccc(F)cc2)c(-c2ccncc2)c(N2CCC(N)C2)n1C (centres undefined) |
| 277 nM | OCc1c(-c2ccc(F)cc2)c(-c2ccncc2)cn1CCN1CCOCC1 |
| 77 nM | COC(=O)C1CCn2c(NCCN3CCOCC3)c(-c3ccncc3)c(-c3ccc(F)cc3)c2C1=O (centres undefined) |
| 209 nM | CCNC(=O)c1[nH]cc(-c2ccc(F)cc2)c1-c1ccncc1 |
| 248 nM | CCOC(=O)c1c(-c2ccc(F)cc2)c(-c2ccncc2)c(CCCOCc2ccccc2)n1C |
| 33 nM | CCOC(=O)c1c(-c2cc(F)cc(F)c2)c(-c2ccncc2)cn1C |
| 14 nM | O=C(NCc1ccccc1)c1[nH]cc(-c2ccc(F)cc2)c1-c1ccncc1 |
| 5 nM | COC(=O)c1c(-c2ccc(F)cc2)c(-c2ccncc2)c(N=CN(C)C)n1C |
| 2920 nM | CCNC(=O)N1CCN(c2c(-c3ccncc3)c(-c3ccc(F)cc3)c(C(=O)OC)n2C)CC1 |
| 60 nM | CCOC(=O)c1c(-c2ccc(C)cc2)c(-c2ccncc2)c(N2CCNCC2)n1C |
| 543 nM | CNC(=O)c1c(-c2ccc(F)cc2)c(-c2ccncc2)c(Br)n1C |
| 92 nM | COC(=O)c1c(-c2ccc(F)cc2)c(-c2ccncc2)c(NCCN2CCCCC2)n1C |
| 120 nM | COC(=O)c1c(-c2ccc(F)cc2)c(-c2ccncc2)c(-c2ccc(N(C)C)cc2)n1C |
| 5860 nM | COC(=O)c1c(-c2ccc(F)cc2)c(-c2ccncc2)c(N2CCN(S(C)(=O)=O)CC2)n1C |
| 70 nM | CCn1cc(-c2ccncc2)c(-c2ccc(F)cc2)c1CO |
| 2 nM | COC(=O)c1c(-c2ccc(F)cc2)c(-c2ccncc2)c(-c2cccc(NC(C)=O)c2)n1C |
| 401 nM | CCN1C(=O)c2c(-c3ccncc3)c(-c3ccc(F)cc3)cn2C1=O |

| IC50 | SMILES |
| --- | --- |
| 443 nM | COCC#Cc1c(-c2ccc(F)cc2)c(-c2ccncc2)c(C(=O)OC)n1C |
| 52 nM | COC(=O)c1c(-c2ccc(F)cc2)c(-c2ccncc2)c(N=C(c2ccccc2)c2ccccc2)n1C |
| 1 nM | CCCc1c(-c2ccnc(N[C@@H](C)COC)n2)c(-c2ccc(F)cc2)cn1CCN1CCOCC1 |
| 5 nM | COC(=O)CN1CCN(c2c(-c3ccncc3)c(-c3ccc(F)cc3)c(C(=O)OC)n2C)CC1 |
| 269 nM | COC(=O)c1c(-c2ccc(F)cc2)c(-c2ccncc2)c(N2CCN(CC3CC3)CC2)n1C |
| 420 nM | Cn1c(C(=O)OC(C)(C)C)c(-c2ccc(F)cc2)c(-c2ccncc2)c1N1CCNCC1 |
| 148 nM | CCCc1c(-c2ccnc(SC)n2)c(-c2ccc(F)cc2)cn1CCCN(C)C |
| 59 nM | Cn1cc(-c2ccncc2)c(-c2ccc(F)cc2)c1-c1cnco1 |
| 1530 nM | COC(=O)c1c(-c2ccc(F)cc2)c(-c2ccncc2)c(N2CCN(C(C)=O)CC2)n1C |
| 34 nM | C=CC#Cc1c(-c2ccc(F)cc2)c(-c2ccncc2)c(C(=O)OC)n1C |
| 101 nM | OCc1[nH]cc(-c2ccc(F)cc2)c1-c1ccncc1 |
| 560 nM | CCOC(=O)c1[nH]cc(-c2ccncc2)c1-c1ccc(F)c(F)c1 |
| 736 nM | CCOC(=O)c1c(-c2ccc(C)cc2)c(-c2ccncc2)c(Br)n1C |
| 86 nM | CCCc1[nH]cc(-c2ccc(F)cc2)c1-c1ccnc(N[C@@H](C)COC)n1 |
| 136 nM | CCOC(=O)c1[nH]cc(-c2ccncc2)c1-c1ccc(C)cc1 |
| 301 nM | CN(C)C(=O)c1c(-c2ccc(F)cc2)c(-c2ccncc2)c(Br)n1C |
| 98 nM | COC(=O)c1c(-c2ccc(F)cc2)c(-c2ccncc2)c(NCCN(C)C)n1C |
| 315 nM | COC(=O)c1c(-c2ccc(F)cc2)c(-c2ccncc2)c(NC2CCNCC2)n1C |
| 169 nM | Cn1cc(-c2ccc(F)cc2)c(-c2ccncc2)c1CO |

| IC50 | SMILES |
| --- | --- |
| 7.7 nM | COC(=O)c1c(-c2ccc(F)cc2)c(-c2ccncc2)c(C#CCN2CCN(C)CC2)n1C |
| 326 nM | COC(=O)C1CCn2cc(-c3ccncc3)c(-c3ccc(F)cc3)c2C1=O (centres undefined) |
| 32 nM | COC(=O)c1c(-c2ccncc2)c(-c2ccc(F)cc2)c(C#CCCN2CCOCC2)n1C |
| 166 nM | COC(=O)c1c(-c2ccc(F)cc2)c(-c2ccncc2)c(N2CCc3ccccc3C2)n1C |
| 63 nM | Fc1ccc(-c2c[nH]c(CN3CCNCC3)c2-c2ccncc2)cc1 |
| 145 nM | COC(=O)c1c(-c2ccc(F)cc2)c(-c2ccncc2)c(NCc2ccncc2)n1C |
| 18 nM | Cn1c(C#N)c(-c2ccc(F)cc2)c(-c2ccncc2)c1N1CCNCC1 |
| 625 nM | Cn1c(Br)c(-c2ccncc2)c(-c2ccc(F)cc2)c1C#N |
| 3 nM | CN(CCO)Cc1[nH]cc(-c2ccc(F)cc2)c1-c1ccncc1 |
| 756 nM | CCOC(=O)c1c(-c2ccc(F)cc2)c(-c2ccncc2)c(CCCN2CCOCC2)n1C |
| 96 nM | CCOC(=O)c1[nH]cc(-c2ccncc2)c1-c1cccc(C(F)(F)F)c1 |
| 135 nM | CCN1CCN(c2c(-c3ccncc3)c(-c3ccc(F)cc3)c(C(=O)OC)n2C)CC1 |
| 26 nM | O=C1c2c(-c3ccncc3)c(-c3ccc(F)cc3)cn2C(=O)N1Cc1ccccc1 |
| 788 nM | COC(=O)c1c(-c2ccncc2)c(-c2ccc(F)cc2)c(C#CCN2CCOCC2)n1C |
| 27 nM | Cn1cc(-c2ccncc2)c(-c2ccc(F)cc2)c1CNC(=O)Nc1ccccc1 |
| 69 nM | COC(=O)c1c(-c2cccc(F)c2)c(-c2ccncc2)c(N2CCNCC2)n1C |
| 194 nM | COC(=O)c1c(-c2ccc(F)cc2)c(-c2ccncc2)cn1C(C)=O |
| 30 nM | CCOC(=O)N1CCN(c2c(-c3ccncc3)c(-c3ccc(F)cc3)c(C(=O)OC)n2C)CC1 |
| 72 nM | CON(C)C(=O)c1c(-c2ccc(F)cc2)c(-c2ccncc2)c(N2CCN(C(=O)OC(C)(C)C)CC2)n1C |

system: MAPK14 (BALB/cJ mice); assay: In vivo Inhibition of LPS-induced TNF-alpha Production; conditions: dose or concentration not given here

| SMILES | inhibition |
| --- | --- |
| C[C@H](Nc1nccc(-c2cn(CCN3CCOCC3)cc2-c2ccc(F)cc2)n1)c1ccccc1 | -21% |
| Cn1c(Br)c(-c2ccncc2)c(-c2ccc(F)cc2)c1C(=O)OC(C)(C)C | -7% |
| COC(=O)c1c(-c2ccc(F)cc2)c(-c2ccncc2)c(N2CCC(N)C2)n1C (centres undefined) | 25% |
| OCc1c(-c2ccc(F)cc2)c(-c2ccncc2)cn1CCN1CCOCC1 | -50% |
| COC(=O)C1CCn2c(NCCN3CCOCC3)c(-c3ccncc3)c(-c3ccc(F)cc3)c2C1=O (centres undefined) | 71% |
| CCNC(=O)c1[nH]cc(-c2ccc(F)cc2)c1-c1ccncc1 | -24% |
| CCOC(=O)c1c(-c2ccc(F)cc2)c(-c2ccncc2)c(CCCOCc2ccccc2)n1C | 51% |
| CCOC(=O)c1c(-c2cc(F)cc(F)c2)c(-c2ccncc2)cn1C | -31% |
| O=C(NCc1ccccc1)c1[nH]cc(-c2ccc(F)cc2)c1-c1ccncc1 | -60% |
| COC(=O)c1c(-c2ccc(F)cc2)c(-c2ccncc2)c(N=CN(C)C)n1C | 6% |
| CCNC(=O)N1CCN(c2c(-c3ccncc3)c(-c3ccc(F)cc3)c(C(=O)OC)n2C)CC1 | -38% |
| CCOC(=O)c1c(-c2ccc(C)cc2)c(-c2ccncc2)c(N2CCNCC2)n1C | 79% |
| CNC(=O)c1c(-c2ccc(F)cc2)c(-c2ccncc2)c(Br)n1C | 53% |
| COC(=O)c1c(-c2ccc(F)cc2)c(-c2ccncc2)c(NCCN2CCCCC2)n1C | -36% |
| COC(=O)c1c(-c2ccc(F)cc2)c(-c2ccncc2)c(-c2ccc(N(C)C)cc2)n1C | -22% |
| COC(=O)c1c(-c2ccc(F)cc2)c(-c2ccncc2)c(N2CCN(S(C)(=O)=O)CC2)n1C | -29% |
| CCn1cc(-c2ccncc2)c(-c2ccc(F)cc2)c1CO | 48% |
| COC(=O)c1c(-c2ccc(F)cc2)c(-c2ccncc2)c(-c2cccc(NC(C)=O)c2)n1C | 59% |
| CCN1C(=O)c2c(-c3ccncc3)c(-c3ccc(F)cc3)cn2C1=O | 72% |

| SMILES | inhibition |
| --- | --- |
| COCC#Cc1c(-c2ccc(F)cc2)c(-c2ccncc2)c(C(=O)OC)n1C | -5% |
| COC(=O)c1c(-c2ccc(F)cc2)c(-c2ccncc2)c(N=C(c2ccccc2)c2ccccc2)n1C | -49% |
| CCCc1c(-c2ccnc(N[C@@H](C)COC)n2)c(-c2ccc(F)cc2)cn1CCN1CCOCC1 | -1% |
| COC(=O)CN1CCN(c2c(-c3ccncc3)c(-c3ccc(F)cc3)c(C(=O)OC)n2C)CC1 | 26% |
| COC(=O)c1c(-c2ccc(F)cc2)c(-c2ccncc2)c(N2CCN(CC3CC3)CC2)n1C | 66.3% |
| Cn1c(C(=O)OC(C)(C)C)c(-c2ccc(F)cc2)c(-c2ccncc2)c1N1CCNCC1 | 25% |
| CCCc1c(-c2ccnc(SC)n2)c(-c2ccc(F)cc2)cn1CCCN(C)C | -37% |
| Cn1cc(-c2ccncc2)c(-c2ccc(F)cc2)c1-c1cnco1 | 53% |
| COC(=O)c1c(-c2ccc(F)cc2)c(-c2ccncc2)c(N2CCN(C(C)=O)CC2)n1C | 57% |
| C=CC#Cc1c(-c2ccc(F)cc2)c(-c2ccncc2)c(C(=O)OC)n1C | -20% |
| OCc1[nH]cc(-c2ccc(F)cc2)c1-c1ccncc1 | -72% |
| CCOC(=O)c1[nH]cc(-c2ccncc2)c1-c1ccc(F)c(F)c1 | -32% |
| CCOC(=O)c1c(-c2ccc(C)cc2)c(-c2ccncc2)c(Br)n1C | -76% |
| CCCc1[nH]cc(-c2ccc(F)cc2)c1-c1ccnc(N[C@@H](C)COC)n1 | -35% |
| CCOC(=O)c1[nH]cc(-c2ccncc2)c1-c1ccc(C)cc1 | -218% |
| CN(C)C(=O)c1c(-c2ccc(F)cc2)c(-c2ccncc2)c(Br)n1C | -41% |
| COC(=O)c1c(-c2ccc(F)cc2)c(-c2ccncc2)c(NCCN(C)C)n1C | -43% |
| COC(=O)c1c(-c2ccc(F)cc2)c(-c2ccncc2)c(NC2CCNCC2)n1C | 7% |
| Cn1cc(-c2ccc(F)cc2)c(-c2ccncc2)c1CO | 65% |

| SMILES | inhibition |
| --- | --- |
| COC(=O)c1c(-c2ccc(F)cc2)c(-c2ccncc2)c(C#CCN2CCN(C)CC2)n1C | 57% |
| COC(=O)C1CCn2cc(-c3ccncc3)c(-c3ccc(F)cc3)c2C1=O (centres undefined) | -9% |
| COC(=O)c1c(-c2ccncc2)c(-c2ccc(F)cc2)c(C#CCCN2CCOCC2)n1C | -4% |
| COC(=O)c1c(-c2ccc(F)cc2)c(-c2ccncc2)c(N2CCc3ccccc3C2)n1C | 32% |
| Fc1ccc(-c2c[nH]c(CN3CCNCC3)c2-c2ccncc2)cc1 | -41% |
| COC(=O)c1c(-c2ccc(F)cc2)c(-c2ccncc2)c(NCc2ccncc2)n1C | -22% |
| Cn1c(C#N)c(-c2ccc(F)cc2)c(-c2ccncc2)c1N1CCNCC1 | 67% |
| Cn1c(Br)c(-c2ccncc2)c(-c2ccc(F)cc2)c1C#N | 22% |
| CN(CCO)Cc1[nH]cc(-c2ccc(F)cc2)c1-c1ccncc1 | -8% |
| CCOC(=O)c1c(-c2ccc(F)cc2)c(-c2ccncc2)c(CCCN2CCOCC2)n1C | 34% |
| CCOC(=O)c1[nH]cc(-c2ccncc2)c1-c1cccc(C(F)(F)F)c1 | -8% |
| CCN1CCN(c2c(-c3ccncc3)c(-c3ccc(F)cc3)c(C(=O)OC)n2C)CC1 | 67.8% |
| O=C1c2c(-c3ccncc3)c(-c3ccc(F)cc3)cn2C(=O)N1Cc1ccccc1 | 51% |
| COC(=O)c1c(-c2ccncc2)c(-c2ccc(F)cc2)c(C#CCN2CCOCC2)n1C | 47% |
| Cn1cc(-c2ccncc2)c(-c2ccc(F)cc2)c1CNC(=O)Nc1ccccc1 | 82% |
| COC(=O)c1c(-c2cccc(F)c2)c(-c2ccncc2)c(N2CCNCC2)n1C | 49% |
| COC(=O)c1c(-c2ccc(F)cc2)c(-c2ccncc2)cn1C(C)=O | -32.1% |
| CCOC(=O)N1CCN(c2c(-c3ccncc3)c(-c3ccc(F)cc3)c(C(=O)OC)n2C)CC1 | 8% |
| CON(C)C(=O)c1c(-c2ccc(F)cc2)c(-c2ccncc2)c(N2CCN(C(=O)OC(C)(C)C)CC2)n1C | 45% |

— the Kinase Knowledgebase extract (Sharma et al. 2016)
